TGI data for one compound are collected here from PubChem BioAssay (NCI).

Where “and” joins values, the source holds several entries; their conditions need not be identical. Equal values may be shown once.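 48-hour exposure; five concentrations; linearly interpolated endpoints. TGI is the concentration that stops growth completely.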

This experiment has as its system LXFL 529 NSCLC. Description: NCI tumour cell line growth inhibition, 48 h.

As for `COc1cccc2c1C(=O)c1c(O)c3c(c(O)c1C2=O)C[C@@](O)(C(C)=O)C[C@@H]3OC1CC(N)C(O)C(C)O1` (stereo partly specified), the TGI is 1480 nM and 1360 nM and > 5010 nM.
